Converted amounts (≈) assume the structure as drawn.
How the values were obtained:
Assay type in all cases: functional
Bacillus subtilis = assay: Antibacterial activity against Bacillus subtilis by twofold serial dilution method
Staphylococcus aureus = assay: Antibacterial activity against Staphylococcus aureus by twofold serial dilution method
[1] = test system: Staphylococcus epidermidis; assay: Antibacterial activity against Staphylococcus epidermidis by twofold serial dilution method
Escherichia coli = assay: Antibacterial activity against Escherichia coli by twofold serial dilution method
Pseudomonas aeruginosa = assay: Antibacterial activity against Pseudomonas aeruginosa by twofold serial dilution method
Rhizopus arrhizus = assay: Antifungal activity against Rhizopus oryzae by twofold serial dilution method
Aspergillus niger = assay: Antifungal activity against Aspergillus niger by twofold serial dilution method
Aspergillus flavus = assay: Antifungal activity against Aspergillus flavus by twofold serial dilution method
Candida albicans = assay: Antifungal activity against Candida albicans by twofold serial dilution method
Saccharomyces cerevisiae = assay: Antifungal activity against Saccharomyces cerevisiae by twofold serial dilution method

Row | MIC (Bacillus subtilis) [µg/mL] | MIC (Staphylococcus aureus) [µg/mL] | MIC [1] [µg/mL] | MIC (Escherichia coli) [µg/mL] | MIC (Pseudomonas aeruginosa) [µg/mL] | MIC (Rhizopus arrhizus) [µg/mL] | MIC (Aspergillus niger) [µg/mL] | MIC (Aspergillus flavus) [µg/mL] | MIC (Candida albicans) [µg/mL] | MIC (Saccharomyces cerevisiae) [µg/mL] | Compound
1 | 150 (≈ 417 µM) | 75 (≈ 209 µM) | 75 (≈ 209 µM) | 150 (≈ 417 µM) | 75 (≈ 209 µM) | 150 (≈ 417 µM) | 150 (≈ 417 µM) | 150 (≈ 417 µM) | 150 (≈ 417 µM) | 150 (≈ 417 µM) | COc1ccc(-n2nc(C)n(CCSc3ccc(F)cc3)c2=O)cc1
2 | 37.5 (≈ 85 µM) | 18.8 (≈ 42.5 µM) | 75 (≈ 170 µM) | 37.5 (≈ 85 µM) | 18.8 (≈ 42.5 µM) | 75 (≈ 170 µM) | 37.5 (≈ 85 µM) | 75 (≈ 170 µM) | 150 (≈ 340 µM) | 150 (≈ 340 µM) | COc1ccc(-n2nc(C)n(CCS(=O)(=O)c3cccc(C(F)(F)F)c3)c2=O)cc1
3 | 150 (≈ 366 µM) | 9.75 (≈ 23.8 µM) | 150 (≈ 366 µM) | 9.75 (≈ 23.8 µM) | 75 (≈ 183 µM) | 18.8 (≈ 45.8 µM) | 150 (≈ 366 µM) | 150 (≈ 366 µM) | 150 (≈ 366 µM) | 150 (≈ 366 µM) | COc1ccc(-n2nc(C)n(CCSc3cccc(C(F)(F)F)c3)c2=O)cc1
4 | 75 (≈ 220 µM) | 75 (≈ 220 µM) | 37.5 (≈ 110 µM) | 37.5 (≈ 110 µM) | 75 (≈ 220 µM) | 75 (≈ 220 µM) | 37.5 (≈ 110 µM) | 75 (≈ 220 µM) | 150 (≈ 439 µM) | 150 (≈ 439 µM) | COc1ccc(-n2nc(C)n(CCSc3ccccc3)c2=O)cc1
5 | 150 (≈ 383 µM) | 37.5 (≈ 95.8 µM) | 75 (≈ 192 µM) | 150 (≈ 383 µM) | 37.5 (≈ 95.8 µM) | 18.8 (≈ 47.9 µM) | 37.5 (≈ 95.8 µM) | 75 (≈ 192 µM) | 150 (≈ 383 µM) | 150 (≈ 383 µM) | COc1ccc(-n2nc(C)n(CCS(=O)(=O)c3ccccc3F)c2=O)cc1
6 | 75 (≈ 166 µM) | 9.38 (≈ 20.7 µM) | 150 (≈ 332 µM) | 150 (≈ 332 µM) | 150 (≈ 332 µM) | 37.5 (≈ 82.9 µM) | 37.5 (≈ 82.9 µM) | 75 (≈ 166 µM) | 150 (≈ 332 µM) | 150 (≈ 332 µM) | COc1ccc(-n2nc(C)n(CCS(=O)(=O)c3ccc(Br)cc3)c2=O)cc1
7 | 150 (≈ 338 µM) | 75 (≈ 169 µM) | 150 (≈ 338 µM) | 150 (≈ 338 µM) | 150 (≈ 338 µM) | 150 (≈ 338 µM) | 150 (≈ 338 µM) | 150 (≈ 338 µM) | 150 (≈ 338 µM) | 150 (≈ 338 µM) | COc1ccc(-n2nc(C)n(CCSc3nnc(-c4ccc(Cl)cc4)o3)c2=O)cc1
8 | 1.53 (≈ 4.56 µM) | 6.25 (≈ 18.7 µM) | 3.12 (≈ 9.35 µM) | 7.81 (≈ 23.4 µM) | 12.5 (≈ 37.4 µM) | – | – | – | – | – | CC1(C)S[C@@H]2[C@H](NC(=O)Cc3ccccc3)C(=O)N2[C@H]1C(=O)O [PENICILLIN G]
9 | 75 (≈ 192 µM) | 75 (≈ 192 µM) | 37.5 (≈ 95.8 µM) | 37.5 (≈ 95.8 µM) | 75 (≈ 192 µM) | 75 (≈ 192 µM) | 37.5 (≈ 95.8 µM) | 75 (≈ 192 µM) | 150 (≈ 383 µM) | 150 (≈ 383 µM) | COc1ccc(-n2nc(C)n(CCS(=O)(=O)c3ccc(F)cc3)c2=O)cc1
10 | 37.5 (≈ 104 µM) | 9.75 (≈ 27.1 µM) | 150 (≈ 417 µM) | 75 (≈ 209 µM) | 37.5 (≈ 104 µM) | 9.75 (≈ 27.1 µM) | 150 (≈ 417 µM) | 150 (≈ 417 µM) | 37.5 (≈ 104 µM) | 150 (≈ 417 µM) | COc1ccc(-n2nc(C)n(CCSc3ccccc3F)c2=O)cc1
11 | 75 (≈ 178 µM) | 150 (≈ 357 µM) | 150 (≈ 357 µM) | 150 (≈ 357 µM) | 75 (≈ 178 µM) | 75 (≈ 178 µM) | 75 (≈ 178 µM) | 75 (≈ 178 µM) | 150 (≈ 357 µM) | 150 (≈ 357 µM) | COc1ccc(-n2nc(C)n(CCSc3ccc(Br)cc3)c2=O)cc1
12 | 18.8 (≈ 50.5 µM) | 75 (≈ 202 µM) | 150 (≈ 404 µM) | 18.8 (≈ 50.5 µM) | 75 (≈ 202 µM) | 37.5 (≈ 101 µM) | 37.5 (≈ 101 µM) | 75 (≈ 202 µM) | 150 (≈ 404 µM) | 150 (≈ 404 µM) | COc1ccc(-n2nc(C)n(CCSc3cccc(OC)c3)c2=O)cc1
13 | 75 (≈ 210 µM) | 75 (≈ 210 µM) | 75 (≈ 210 µM) | 150 (≈ 421 µM) | 150 (≈ 421 µM) | 37.5 (≈ 105 µM) | 37.5 (≈ 105 µM) | 75 (≈ 210 µM) | 150 (≈ 421 µM) | 150 (≈ 421 µM) | COc1ccc(-n2nc(C)n(CCSc3ccc(N)cc3)c2=O)cc1
14 | 75 (≈ 192 µM) | 18.8 (≈ 47.9 µM) | 37.5 (≈ 95.8 µM) | 9.38 (≈ 24 µM) | 150 (≈ 383 µM) | 37.5 (≈ 95.8 µM) | 37.5 (≈ 95.8 µM) | 75 (≈ 192 µM) | 150 (≈ 383 µM) | 150 (≈ 383 µM) | COc1ccc(-n2nc(C)n(CCS(=O)(=O)c3cccc(F)c3)c2=O)cc1
15 | 150 (≈ 417 µM) | 37.5 (≈ 104 µM) | 75 (≈ 209 µM) | 150 (≈ 417 µM) | 37.5 (≈ 104 µM) | 37.5 (≈ 104 µM) | 150 (≈ 417 µM) | 150 (≈ 417 µM) | 150 (≈ 417 µM) | 150 (≈ 417 µM) | COc1ccc(-n2nc(C)n(CCSc3cccc(F)c3)c2=O)cc1
16 | 150 (≈ 402 µM) | 37.5 (≈ 100 µM) | 75 (≈ 201 µM) | 150 (≈ 402 µM) | 75 (≈ 201 µM) | 150 (≈ 402 µM) | 150 (≈ 402 µM) | 150 (≈ 402 µM) | 150 (≈ 402 µM) | 150 (≈ 402 µM) | COc1ccc(-n2nc(C)n(CCS(=O)(=O)c3ccccc3)c2=O)cc1

Row | Compound | MIC (Bacillus subtilis) [µg/mL] | MIC (Staphylococcus aureus) [µg/mL] | MIC [1] [µg/mL] | MIC (Escherichia coli) [µg/mL] | MIC (Pseudomonas aeruginosa) [µg/mL] | MIC (Rhizopus arrhizus) [µg/mL] | MIC (Aspergillus niger) [µg/mL] | MIC (Aspergillus flavus) [µg/mL] | MIC (Candida albicans) [µg/mL] | MIC (Saccharomyces cerevisiae) [µg/mL]
17 | CN[C@@H]1[C@H](O[C@H]2[C@H](O[C@H]3[C@H](O)[C@@H](O)[C@H](N=C(N)N)[C@@H](O)[C@@H]3N=C(N)N)O[C@@H](C)[C@]2(O)C=O)O[C@@H](CO)[C@H](O)[C@H]1O [STREPTOMYCIN] | 6.25 (≈ 10.7 µM) | 1.56 (≈ 2.68 µM) | 1.56 (≈ 2.69 µM) | 3.12 (≈ 5.37 µM) | 3.12 (≈ 5.37 µM) | – | – | – | – | –
18 | C[C@@H]1[C@H](O)[C@@H](C)/C=C/C=C/C=C/C=C/C=C/C=C/C=C/[C@H](O[C@@H]2O[C@H](C)[C@@H](O)[C@H](N)[C@@H]2O)C[C@@H]2O[C@](O)(C[C@@H](O)C[C@@H](O)[C@H](O)CC[C@@H](O)C[C@@H](O)CC(=O)O[C@H]1C)C[C@H](O)[C@H]2C(=O)O [AMPHOTERICIN B] | – | – | – | – | – | 1.56 (≈ 1.69 µM) | 1.56 (≈ 1.69 µM) | 6.25 (≈ 6.76 µM) | 6.25 (≈ 6.76 µM) | 6.25 (≈ 6.76 µM)

From ChEMBL document CHEMBL1208670, “Synthesis, characterization and antimicrobial studies of 2-(4-methoxy-phenyl)-5-methyl-4-(2-arylsulfanyl-ethyl)-2,4-dihydro-[1,2,4] triazolo-3-ones and their corresponding sulfones” (2010)
